Settings: not given

| Structure (SMILES) | melting point [°C] | log10 Koa | boiling point [°C] | log10 vapour pressure (mmHg) | log10 Henry constant (atm·m³/mol) | ready biodegradability | log10 Koc (L/kg) |
| --- | --- | --- | --- | --- | --- | --- | --- |
| CC(C(=O)O)c1ccc(C(=O)c2ccccc2)s1 (stereo unspecified) | 96 |  |  |  |  |  |  |
| CC1=C(/C=C/C(C)=C/C=C/C(C)=C/C=C/C=C(C)/C=C/C=C(C)/C=C/C2=C(C)C[C@@H](O)CC2(C)C)C(C)(C)C[C@H](O)C1 | 216 |  |  |  |  |  |  |
| Clc1ccc(-c2c(Cl)ccc(Cl)c2Cl)cc1Cl |  | 9.06 |  |  |  |  |  |
| CCC(C)CCC(C)(C)C (stereo unspecified) |  |  | 151 |  |  |  |  |
| CCCCCCCc1ccccc1 | -48 |  | 240 | -1.51 |  |  |  |
| C=CCC1(CC(=C)Br)C(=O)NC(=O)NC1=O | 168 |  |  |  |  |  |  |
| CCCC#CCCCC(=O)O | -3 |  |  |  |  |  |  |
| CCOC(=O)CSc1nc(C(C)(C)C)nn1C(=O)N(C)C | 53 |  |  | -6.92 |  |  |  |
| CCC=C(C)CO |  |  | 168 |  |  |  |  |
| CC(C)C12C=CC(C)(CC1)OO2 (stereo unspecified) | 3.3 |  |  |  |  |  |  |
| CCC(C)(C)O | -9.1 |  | 102 | 1.22 | -4.86 | not readily biodegradable |  |
| C=CC(C)Cl (stereo unspecified) |  |  | 64.5 | 2.18 |  |  |  |
| Clc1cc(Cl)c(Cl)c(-c2cc(Cl)cc(Cl)c2Cl)c1 |  |  |  |  |  |  | 6.48 |
| O=C(O)CCCCCc1ccccc1 | 23 |  |  |  |  |  |  |
| CCCCCCCCOCCCCCCCC | -7.6 |  | 283 |  |  | readily biodegradable |  |
| Clc1ccc(-c2ccccc2)c(Cl)c1 |  |  |  | -2.86 | -3.55 |  |  |
| CCn1c2ccccc2c2ccccc21 | 68 |  |  | -3.66 |  |  |  |
| O=[N+]([O-])c1ccc2c(c1)Cc1ccccc1-2 | 157 |  |  |  |  |  |  |
| Cc1c(C)c(C)c(N)c(C)c1C | 152 |  | 278 |  |  |  |  |
| O=C1CCOCC1 |  |  | 166 |  |  |  |  |
| C=CCCCCCCCCC(=O)OCC | -38 |  | 264 |  |  |  |  |
| CCCCCCc1ccc(N)cc1 |  |  | 282 |  |  |  |  |
| N[C@H](Cc1ccccc1)c1ccccc1 |  |  | 311 |  |  |  |  |
| ClCC(Cl)(Cl)Cl | -70.2 |  | 130 | 1.08 | -2.6 |  |  |
| COc1ccc(-c2cc(=O)c3c(O)cc(O)cc3o2)cc1 | 263 |  |  |  |  |  |  |
| O=C1OC(=O)c2cc(Cl)c(Cl)cc21 | 188 |  | 313 |  |  |  |  |

| Structure (SMILES) | melting point [°C] | log10 Koa | boiling point [°C] | log10 vapour pressure (mmHg) | log10 Henry constant (atm·m³/mol) | ready biodegradability | log10 Koc (L/kg) |
| --- | --- | --- | --- | --- | --- | --- | --- |
| CC(C)c1ccc2ccccc2c1 | 14.5 |  | 268 | -2.29 |  |  |  |
| CC(C)(C)O | 25.4 | 3.5 | 82.4 | 1.61 | -5.04 | not readily biodegradable |  |
| NS(=O)(=O)c1cccc([N+](=O)[O-])c1 | 167 |  |  |  |  |  |  |
| COCC(C)Cl (stereo unspecified) |  |  | 99 |  |  |  |  |
| CCOC(=O)C1(C(=O)OCC)CCCC1 |  |  | 210 |  |  |  |  |
| CC(C)(Cl)Br |  |  | 95 |  |  |  |  |
| CCOC(=O)C(F)Cl (stereo unspecified) |  |  | 129 |  |  |  |  |
| CCOC(=O)c1cccc(N)c1 |  |  | 294 |  |  |  |  |
| COc1c(Cl)c(Cl)c(O)c(Cl)c1Cl | 116 |  |  |  |  |  |  |
| CCCCC(=O)CC | -39 |  | 147 | 0.415 |  |  |  |
| CC(C)(C)NC[C@H](O)COc1nsnc1N1CCOCC1 | 202 |  |  |  |  |  |  |
| CCC(C)c1cc([N+](=O)[O-])cc([N+](=O)[O-])c1OC(=O)OC(C)C (stereo unspecified) | 61 |  |  |  |  |  |  |
| CC(=O)N(CC(O)CO)c1c(I)c(C(=O)NCC(O)CO)c(I)c(C(=O)NCC(O)CO)c1I (stereo unspecified) | 177 |  |  |  |  |  |  |
| CCNC(C)C |  |  | 69.6 |  |  |  |  |
| Cc1ccccc1-c1ccccc1 | -0.2 |  | 256 |  |  |  |  |
| Cc1cccc(-c2ccccc2)c1 | 4.5 |  | 273 |  |  |  |  |
| CCCC(=O)OCc1ccccc1 |  |  | 239 |  |  |  |  |
| Nc1ccc(O)c([N+](=O)[O-])c1 | 126 |  |  |  |  |  |  |
| CCCCB(O)O | 95 |  |  |  |  |  |  |
| O=C(O)CCS | 18 |  |  | -1.3 |  |  |  |
| O=S(=O)(Cl)c1cccs1 | 28 |  |  |  |  |  |  |
| CCC(=O)c1cccc(C)c1 |  |  | 235 |  |  |  |  |
| N#CC1CCC1 |  |  | 150 |  |  |  |  |
| O=C1c2cccc(O)c2C(=O)c2c(O)cc(CO)cc21 | 224 |  |  |  |  |  |  |
| Cc1[nH]c(=O)n(C(C)(C)C)c(=O)c1Cl | 176 |  |  | -6.33 |  | not readily biodegradable | 1.66 |
| CC(C)OC(C)C | -86.8 | 2.66 | 68.5 | 2.17 | -2.59 | not readily biodegradable |  |

| Structure (SMILES) | melting point [°C] | log10 Koa | boiling point [°C] | log10 vapour pressure (mmHg) | log10 Henry constant (atm·m³/mol) | ready biodegradability | log10 Koc (L/kg) |
| --- | --- | --- | --- | --- | --- | --- | --- |
| C[C@@H]1NC(=O)N[C@@H]1CCCCCC(=O)O | 157 |  |  |  |  |  |  |
| CCCCCN1C(=O)c2ccc([N+](=O)[O-])cc2C1=O |  |  |  |  |  | readily biodegradable |  |
| CCCCCCCCCCCCCCCCCCOCC(O)CO (stereo unspecified) | 70.5 |  |  |  |  |  |  |
| Nc1c(F)c(F)c(C(F)(F)F)c(F)c1F |  |  | 186 |  |  |  |  |
| CCCCCCOC(=O)CCCCCCCC(=O)OCCCCCC | -8 |  |  |  |  |  |  |
| CCCCCCCCCCCCCCCC(=O)O | 61.8 |  | 352 | -6.42 |  | readily biodegradable |  |
| CC(CN1c2ccccc2Sc2ccccc21)[N+](C)(C)CCO.[Cl-] (stereo unspecified) | 233 |  |  |  |  |  |  |
| O=C(Nc1ccccc1)c1cc2ccccc2cc1O | 248 |  |  |  |  | not readily biodegradable |  |
| NCc1ccccc1Sc1ccccc1CO | 97 |  |  |  |  |  |  |
| CCCCCCCCCCCCCCCCCCCCCC1CCCC1 | 42 |  | 420 |  |  |  |  |
| CNc1ccc(C)cc1 |  |  | 210 |  |  |  |  |
| CCOc1cccc2ccccc12 | 5.5 |  | 280 |  |  |  |  |
| COP(N)(=O)SC (stereo unspecified) | 46 |  |  | -4.45 |  |  | 0.7 |
| CCCCCCCC1CCCC(=O)O1 (stereo unspecified) | -12 |  |  |  |  |  |  |
| CCCCCCCCCCCCCCCCCCC#N |  |  |  |  |  | readily biodegradable |  |
| CCOC(=O)CC(O)(CC(=O)OCC)C(=O)OCC |  |  | 294 |  |  |  |  |
| CC(=O)Nc1cccc([N+](=O)[O-])c1 | 155 |  |  |  |  |  | 1.94 |
| CCCCCCCC/C=C\CCCCCCCCCCCC(=O)O | 33.5 |  |  |  |  |  |  |
| c1ccc(-c2ccc3ccccc3c2)cc1 | 104 |  | 346 | -4.46 |  |  |  |
| C=COCC(CC)CCCC (stereo unspecified) | -100 |  |  |  |  | not readily biodegradable |  |
| CC1CCCCCC1=O (stereo unspecified) |  |  | 185 |  |  |  |  |
| Cc1ccc2ccccc2n1 | -1.5 |  | 246 | -2.02 |  |  |  |
| Cc1cccc2[nH]ccc12 | 5 |  | 267 |  |  |  |  |
| Oc1ccc([C@H]2COc3cc(O)ccc3C2)cc1 | 190 |  |  |  |  |  |  |
| C1CCSC1 | -96.1 |  | 121 | 1.26 |  |  |  |
| CCCCCCCCOC(C)=O | -38.5 |  | 210 |  |  |  |  |

| Structure (SMILES) | melting point [°C] | log10 Koa | boiling point [°C] | log10 vapour pressure (mmHg) | log10 Henry constant (atm·m³/mol) | ready biodegradability | log10 Koc (L/kg) |
| --- | --- | --- | --- | --- | --- | --- | --- |
| CC(C)(C#N)Nc1nc(Cl)nc(NC2CC2)n1 | 170 |  |  |  |  |  |  |
| CC1=C(C(=O)O)N2C(=O)[C@@H](NC(=O)[C@H](N)C3=CCC=CC3)[C@H]2SC1 | 140 |  |  |  |  |  |  |
| CC(C)C(C)C | -129 |  | 57.9 | 2.37 |  |  |  |
| CCCCCCCCCCCCCCCCCCCCCC(=O)OC | 54 |  |  |  |  |  |  |
| COc1cc(/C=C/C(=O)CC(=O)/C=C/c2ccc(O)c(OC)c2)ccc1O | 183 |  |  |  |  |  |  |
| Cc1cccc(O)c1C(=O)O | 173 |  |  |  |  |  |  |
| C[Si](O)(c1ccccc1)c1ccccc1 | 167 |  |  |  |  |  |  |
| O=C(O)c1ccc(O)c([N+](=O)[O-])c1 | 230 |  |  |  |  |  |  |
| Fc1cccc(F)n1 |  |  | 125 |  |  |  |  |
| O=C(O)CCC(=O)c1ccccc1 | 118 |  |  |  |  |  |  |
| CC(C)(C)c1ccc(CSc2cnn(C(C)(C)C)c(=O)c2Cl)cc1 | 112 |  |  | -5.93 |  |  |  |
| CC(C)(C)c1ccc2ccccc2c1 | -4 |  | 276 |  |  |  |  |
| CC=C(C)Br |  |  | 99.8 |  |  |  |  |
| N#Cc1ccc(C=O)cc1 | 100 |  |  |  |  |  |  |
| O=[N+]([O-])c1ccc2c(c1)CCN2 | 93 |  |  |  |  |  |  |
| O=C(C=Cc1ccccc1)OCc1ccccc1 | 39 |  | 350 | -5 |  |  |  |
| C[C@H]1CC=CCC1 | -116 |  | 103 |  |  |  |  |
| OCCN1CCNCC1 |  |  | 246 |  |  |  |  |
| C#CCC(C)C | -105 |  | 61.2 |  |  |  |  |
| CCCC(C)(O)CCC | -82 |  | 161 |  |  |  |  |
| c1ccc2c(c1)Oc1ccccc1O2 | 122 |  |  | -3.38 |  |  |  |
| CC(=O)C=Cc1ccccc1 | 41.8 |  | 262 | -1.91 |  | not readily biodegradable |  |
| COc1cc(N)ccc1C | 56.5 |  | 251 |  |  |  |  |
| COc1cc(C(=O)O)cc(OC)c1O | 208 |  |  |  |  | readily biodegradable |  |

Same assay, conditions: fish

| Structure (SMILES) | log10 biotransformation half-life (days) | log10 BCF |
| --- | --- | --- |
| Clc1ccc(-c2c(Cl)ccc(Cl)c2Cl)cc1Cl | 2.63 |  |
| Clc1cc(-c2c(Cl)c(Cl)c(Cl)c(Cl)c2Cl)c(Cl)c(Cl)c1Cl | 2.68 |  |
| CC(C)c1ccc2ccccc2c1 | 1 |  |
| CC(C)(C)O | -1.13 | 0.7 |
| O=C(Nc1ccccc1)c1cc2ccccc2cc1O |  | 0.81 |
| CC1CCC(C(=O)O)C(C(=O)O)C1 (stereo unspecified) |  | 0.38 |
| C=COCC(CC)CCCC (stereo unspecified) |  | 2.78 |
